From ChEMBL document CHEMBL3232809, “Synthesis, antibiotic activity and structure-activity relationship study of some 3-enaminetetramic acids” (2014)
Values after ≈ are worked out from the molar mass of the structure shown.

Each compound was assayed on Streptococcus pneumoniae (assay: Antimicrobial activity against penicillin- and erythromycin-resistant Streptococcus pneumoniae).
Format: functional

**Q.** Which MIC does the source give for `CCCC(=O)N1CC(=O)/C(=C(\CC23CC4CC(CC(C4)C2)C3)NCCCN2CCCCC2C)C1=O` (stereo not given) here?
**A.** The MIC was 32 µg/mL (≈ 66.2 µM).

**Q.** How did the MIC turn out when `CSCCC1C(=O)/C(=C(\CC23CC4CC(C)(CC(C)(C4)C2)C3)NCC(C)(C)CN(C)C)C(=O)N1C(C)=O` (stereo not given) was run?
**A.** The MIC was greater than 64 µg/mL.

The compounds below were run on Streptococcus pneumoniae (assay: Antimicrobial activity against penicillin- and erythromycin-resistant Streptococcus pneumoniae in presence of 2.5% horse blood).
Format: functional

**Q.** For `CCCC(=O)N1CC(=O)/C(=C(\CC23CC4CC(CC(C4)C2)C3)NCCCN2CCCCC2C)C1=O` (stereo not given), which MIC is on record?
**A.** The MIC was 32 µg/mL.

**Q.** With `CSCCC1C(=O)/C(=C(\CC23CC4CC(C)(CC(C)(C4)C2)C3)NCC(C)(C)CN(C)C)C(=O)N1C(C)=O` (stereo not given) as the compound, how does the MIC read?
**A.** The MIC was greater than 64 µg/mL.

The compounds below were run on Staphylococcus aureus (assay: Antimicrobial activity against methicillin-sensitive Staphylococcus aureus ATCC 13709).
Format: functional

**Q.** Which MIC does the source give for `CCCC(=O)N1CC(=O)/C(=C(\CC23CC4CC(CC(C4)C2)C3)NCCCN2CCCCC2C)C1=O` (stereo not given) here?
**A.** The MIC was 64 µg/mL (≈ 132 µM).

**Q.** How did the MIC turn out when `CSCCC1C(=O)/C(=C(\CC23CC4CC(C)(CC(C)(C4)C2)C3)NCC(C)(C)CN(C)C)C(=O)N1C(C)=O` (stereo not given) was run?
**A.** Its MIC is greater than 64 µg/mL.

These compounds were tested on Staphylococcus aureus (assay: Antimicrobial activity against vancomycin-susceptible Staphylococcus aureus ATCC 25923).
Format: functional

**Q.** For `CCCC(=O)N1CC(=O)/C(=C(\CC23CC4CC(CC(C4)C2)C3)NCCCN2CCCCC2C)C1=O` (stereo not given), which MIC is on record?
**A.** The MIC was 64 µg/mL (≈ 132 µM).

**Q.** `CSCCC1C(=O)/C(=C(\CC23CC4CC(C)(CC(C)(C4)C2)C3)NCC(C)(C)CN(C)C)C(=O)N1C(C)=O` (stereo not given) was tested. Which MIC did it give?
**A.** Its MIC is greater than 64 µg/mL.

Each compound was assayed on Staphylococcus aureus (assay: Antimicrobial activity against Staphylococcus aureus Oxford).
Format: functional

**Q.** With `CCCC(=O)N1CC(=O)/C(=C(\CC23CC4CC(CC(C4)C2)C3)NCCCN2CCCCC2C)C1=O` (stereo not given) as the compound, how does the MIC read?
**A.** The MIC was 64 µg/mL (≈ 132 µM).

**Q.** For `CSCCC1C(=O)/C(=C(\CC23CC4CC(C)(CC(C)(C4)C2)C3)NCC(C)(C)CN(C)C)C(=O)N1C(C)=O` (stereo not given), which MIC is on record?
**A.** Its MIC is greater than 64 µg/mL.

Each compound was assayed on Staphylococcus aureus (assay: Antimicrobial activity against methicillin-resistant Staphylococcus aureus).
Format: functional

**Q.** Which MIC does the source give for `CCCC(=O)N1CC(=O)/C(=C(\CC23CC4CC(CC(C4)C2)C3)NCCCN2CCCCC2C)C1=O` (stereo not given) here?
**A.** The MIC was 64 µg/mL (≈ 132 µM).

**Q.** `CSCCC1C(=O)/C(=C(\CC23CC4CC(C)(CC(C)(C4)C2)C3)NCC(C)(C)CN(C)C)C(=O)N1C(C)=O` (stereo not given) was tested. Which MIC did it give?
**A.** The MIC was greater than 64 µg/mL.

Each compound was assayed on Enterococcus faecalis (assay: Antimicrobial activity against vancomycin-susceptible Enterococcus faecalis ATCC 29212).
Format: functional

**Q.** With `CCCC(=O)N1CC(=O)/C(=C(\CC23CC4CC(CC(C4)C2)C3)NCCCN2CCCCC2C)C1=O` (stereo not given) as the compound, how does the MIC read?
**A.** Its MIC is 64 µg/mL (≈ 132 µM).

**Q.** Which MIC does the source give for `CSCCC1C(=O)/C(=C(\CC23CC4CC(C)(CC(C)(C4)C2)C3)NCC(C)(C)CN(C)C)C(=O)N1C(C)=O` (stereo not given) here?
**A.** Its MIC is greater than 64 µg/mL.

These compounds were tested on Enterococcus faecium (assay: Antimicrobial activity against vancomycin-resistant Enterococcus faecium).
Format: functional

**Q.** `CCCC(=O)N1CC(=O)/C(=C(\CC23CC4CC(CC(C4)C2)C3)NCCCN2CCCCC2C)C1=O` (stereo not given) was tested. Which MIC did it give?
**A.** The MIC was 64 µg/mL (≈ 132 µM).

**Q.** Which MIC does the source give for `CSCCC1C(=O)/C(=C(\CC23CC4CC(C)(CC(C)(C4)C2)C3)NCC(C)(C)CN(C)C)C(=O)N1C(C)=O` (stereo not given) here?
**A.** Its MIC is greater than 64 µg/mL.

What follows are compounds tested on Streptococcus pneumoniae (assay: Antimicrobial activity against erythromycin-susceptible Streptococcus pneumoniae ATCC 49619).
Format: functional

**Q.** `CCCC(=O)N1CC(=O)/C(=C(\CC23CC4CC(CC(C4)C2)C3)NCCCN2CCCCC2C)C1=O` (stereo not given) was tested. Which MIC did it give?
**A.** Its MIC is 32 µg/mL (≈ 66.2 µM).

**Q.** With `CSCCC1C(=O)/C(=C(\CC23CC4CC(C)(CC(C)(C4)C2)C3)NCC(C)(C)CN(C)C)C(=O)N1C(C)=O` (stereo not given) as the compound, how does the MIC read?
**A.** The MIC was greater than 64 µg/mL.

What follows are compounds tested on Haemophilus influenzae (assay: Antimicrobial activity against Haemophilus influenzae ATCC 31517 MMSA).
Format: functional

**Q.** With `CCCC(=O)N1CC(=O)/C(=C(\CC23CC4CC(CC(C4)C2)C3)NCCCN2CCCCC2C)C1=O` (stereo not given) as the compound, how does the MIC read?
**A.** Its MIC is greater than 64 µg/mL.

**Q.** How did the MIC turn out when `CSCCC1C(=O)/C(=C(\CC23CC4CC(C)(CC(C)(C4)C2)C3)NCC(C)(C)CN(C)C)C(=O)N1C(C)=O` (stereo not given) was run?
**A.** The MIC was greater than 64 µg/mL.

What follows are compounds tested on Haemophilus influenzae (assay: Antimicrobial activity against LS2 Efflux knock-out Haemophilus influenzae).
Format: functional

**Q.** `CCCC(=O)N1CC(=O)/C(=C(\CC23CC4CC(CC(C4)C2)C3)NCCCN2CCCCC2C)C1=O` (stereo not given) was tested. Which MIC did it give?
**A.** The MIC was 32 µg/mL (≈ 66.2 µM).

**Q.** For `CSCCC1C(=O)/C(=C(\CC23CC4CC(C)(CC(C)(C4)C2)C3)NCC(C)(C)CN(C)C)C(=O)N1C(C)=O` (stereo not given), which MIC is on record?
**A.** Its MIC is 4 µg/mL (≈ 7.52 µM).

These compounds were tested on Escherichia coli (assay: Antimicrobial activity against Escherichia coli ATCC 25922).
Format: functional

**Q.** Which MIC does the source give for `CCCC(=O)N1CC(=O)/C(=C(\CC23CC4CC(CC(C4)C2)C3)NCCCN2CCCCC2C)C1=O` (stereo not given) here?
**A.** Its MIC is greater than 32 µg/mL.

**Q.** How did the MIC turn out when `CSCCC1C(=O)/C(=C(\CC23CC4CC(C)(CC(C)(C4)C2)C3)NCC(C)(C)CN(C)C)C(=O)N1C(C)=O` (stereo not given) was run?
**A.** Its MIC is greater than 32 µg/mL.

These compounds were tested on Escherichia coli (assay: Antimicrobial activity against Escherichia coli 50).
Format: functional

**Q.** For `CCCC(=O)N1CC(=O)/C(=C(\CC23CC4CC(CC(C4)C2)C3)NCCCN2CCCCC2C)C1=O` (stereo not given), which MIC is on record?
**A.** The MIC was greater than 32 µg/mL.

**Q.** `CSCCC1C(=O)/C(=C(\CC23CC4CC(C)(CC(C)(C4)C2)C3)NCC(C)(C)CN(C)C)C(=O)N1C(C)=O` (stereo not given) was tested. Which MIC did it give?
**A.** The MIC was greater than 32 µg/mL.

Each compound was assayed on Pseudomonas aeruginosa (assay: Antimicrobial activity against Pseudomonas aeruginosa ATCC 27853).
Format: functional

**Q.** How did the MIC turn out when `CCCC(=O)N1CC(=O)/C(=C(\CC23CC4CC(CC(C4)C2)C3)NCCCN2CCCCC2C)C1=O` (stereo not given) was run?
**A.** Its MIC is greater than 32 µg/mL.

**Q.** With `CSCCC1C(=O)/C(=C(\CC23CC4CC(C)(CC(C)(C4)C2)C3)NCC(C)(C)CN(C)C)C(=O)N1C(C)=O` (stereo not given) as the compound, how does the MIC read?
**A.** Its MIC is greater than 32 µg/mL.

Each compound was assayed on Escherichia coli (assay: Antimicrobial activity against Escherichia coli 49).
Format: functional

**Q.** How did the MIC turn out when `CCCC(=O)N1CC(=O)/C(=C(\CC23CC4CC(CC(C4)C2)C3)NCCCN2CCCCC2C)C1=O` (stereo not given) was run?
**A.** The MIC was greater than 32 µg/mL.

**Q.** For `CSCCC1C(=O)/C(=C(\CC23CC4CC(C)(CC(C)(C4)C2)C3)NCC(C)(C)CN(C)C)C(=O)N1C(C)=O` (stereo not given), which MIC is on record?
**A.** Its MIC is greater than 32 µg/mL.
